Reference: patent US10421754B2, “Quinazoline derivative” (CSPC ZHONGQI PHARMACEUTICAL TECHNOLOGY (SHIJIAZHUANG) CO., …, priority 2014, dated 2019)

tested on: SK-OV-3; test: In vitro cell experiment (MTT), SK-OV-3; type: cell-based; conditions: 72 h, human ovarian carcinoma cells (EGFR2 overexpressing)
Method in brief: (§1)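 Inhibition rates came from OD at 550 nm after 4 h MTT labeling (0.5 mg/mL final) and DMSO solubilization, following 72 h drug exposure at 37° C of cells pre-grown 24 h. Triplicates per concentration, experiments run twice; IC50 by LOGIT method, reported as mean±SD.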

SMILES	IC50
COc1cc2c(Nc3ccc(F)c(Cl)c3)ncnc2cc1OCCCN1CCCC1 [Compound 39, 4-(3-chloro-4-fluoroanilino)-6-methoxy-7-(3-(pyrrolidin-1-yl)propoxy)quinazoline]	1320 nM

tested on: TT; test: In vitro cell experiment (MTT), TT; type: cell-based; conditions: 72 h, human thyroid carcinoma cells (RET C634W mutation)
Procedure: (§2) Cells in logarithmic growth phase were seeded at a certain density in a 96-well plate (200 μL/well). The cells were allowed to grow for 24 h and subsequently treated with different concentrations of drugs (including a blank group and a control group) and incubated for 72 h at 37° C. Each concentration in a given experiment was tested in triplicate. After 72 h of exposure, 20 μL of the MTT labeling reagent was added to the medium (the final concentration of MTT was 0.5 mg/mL), and the cells were incubated for additional 4 h at 37° C. Following this process, 180 μL of the medium was removed and 130 μL of DMSO was added to each well, or the medium was completely removed and 150 μL of DMSO was added to each well. Then the plate was shaken and mixed in a micro-oscillator. Finally the optical density (OD) of each sample was measured in a micro-plate reader at 550 nm. Cell inhibition rate was calculated according to the following formula: […]
(§3) According to cell inhibition rates, IC50 was calculated by LOGIT method. The experiments were repeated twice and the data was expressed as means±SD.

SMILES	IC50
COc1cc2c(Nc3ccc(F)c(Cl)c3)ncnc2cc1OCCCN1CCCC1 [Compound 39, 4-(3-chloro-4-fluoroanilino)-6-methoxy-7-(3-(pyrrolidin-1-yl)propoxy)quinazoline]	186 nM

tested on: CFPAC-1; test: In vitro cell experiment (MTT), CFPAC-1; type: cell-based; conditions: 72 h, human pancreatic carcinoma cells
Procedure: as §2, §3

SMILES	IC50
COc1cc2c(Nc3ccc(F)c(Cl)c3)ncnc2cc1OCCCN1CCCC1 [Compound 39, 4-(3-chloro-4-fluoroanilino)-6-methoxy-7-(3-(pyrrolidin-1-yl)propoxy)quinazoline]	5250 nM

tested on: HT-29; test: In vitro cell experiment (MTT), HT-29; type: cell-based; conditions: 72 h, human colon carcinoma cells (expressing both c-KIT and PDGFR)
Procedure: as §2, §3

SMILES	IC50
COc1cc2c(Nc3ccc(F)c(Cl)c3)ncnc2cc1OCCCN1CCCC1 [Compound 39, 4-(3-chloro-4-fluoroanilino)-6-methoxy-7-(3-(pyrrolidin-1-yl)propoxy)quinazoline]	2870 nM

tested on: A375; test: In vitro cell experiment (MTT), A375; type: cell-based; conditions: A-375, 72 h, human melanoma cells (KDR expressing)
Procedure: as §2, §3

SMILES	IC50
COc1cc2c(Nc3ccc(F)c(Cl)c3)ncnc2cc1OCCCN1CCCC1 [Compound 39, 4-(3-chloro-4-fluoroanilino)-6-methoxy-7-(3-(pyrrolidin-1-yl)propoxy)quinazoline]	197 nM

tested on: HCT116; test: In vitro cell experiment (MTT), HCT116; type: cell-based; conditions: HCT-116, 72 h, human colon carcinoma cells
Method in brief: as §1

SMILES	IC50
COc1cc2c(Nc3ccc(F)c(Cl)c3)ncnc2cc1OCCCN1CCCC1 [Compound 39, 4-(3-chloro-4-fluoroanilino)-6-methoxy-7-(3-(pyrrolidin-1-yl)propoxy)quinazoline]	510 nM

tested on: H292; test: In vitro cell experiment (MTT), H292; type: cell-based; conditions: NCI-H292, 72 h, human lung carcinoma cells (EGFR1 overexpressing)
Method in brief: as §1

SMILES	IC50
COc1cc2c(Nc3ccc(F)c(Cl)c3)ncnc2cc1OCCCN1CCCC1 [Compound 39, 4-(3-chloro-4-fluoroanilino)-6-methoxy-7-(3-(pyrrolidin-1-yl)propoxy)quinazoline]	45.7 nM

tested on: Bel-7402; test: In vitro cell experiment (MTT), Bel-7402; type: cell-based; conditions: 72 h, human hepatoma carcinoma cells
Procedure: as §2, §3

SMILES	IC50
COc1cc2c(Nc3ccc(F)c(Cl)c3)ncnc2cc1OCCCN1CCCC1 [Compound 39, 4-(3-chloro-4-fluoroanilino)-6-methoxy-7-(3-(pyrrolidin-1-yl)propoxy)quinazoline]	5660 nM

biological target: EGFR (Homo sapiens, UniProt P00533); test: In vitro enzyme experiment (ELISA), EGFR; type: biochemical; conditions: Poly (Glu, Tyr)4:1 substrate, 5 μM ATP
Procedure: EGFR: Human epidermal growth factor receptor 1
(§4) ELISA: The enzyme plate was coated by enzyme reaction substrate (Poly (Glu, Tyr)4:1) at a density of 20 μg/ml. Then the enzyme, the sample and 5 μM ATP were mixed in the well to react. After the reaction, the substrate phosphorylation was detected by anti-phosphotyrosine monoclonal antibody (4G10). In the next step, the goat-anti-mouse IgG linking with horse radish peroxidase (HRP) and tetramethylbenzidine (TMB) were added sequentially in the well to evaluate the level of substrate phosphorylation by the degree of color depth. In the experiment, a blank group without tyrosine kinase and a control group with the corresponding concentration of DMSO were established. Finally, 50 μL/well of H2SO4 at a concentration of 0.18M was added in each well to stop the reaction. The optical density (OD) of each sample was measured in a micro-plate reader at 450 nm.
(§5) The relative inhibition rate of the compound against tyrosine kinase protein was determined.
(§6) According to the inhibition rates at different concentrations, IC50 was calculated by LOGIT method. The experiments were repeated three times, and the average of three IC50 values was the final index to evaluate the ability of inhibition.

SMILES	IC50
COc1cc2c(Nc3ccc(F)c(Cl)c3)ncnc2cc1OCCCN1CCCC1 [Compound 39, 4-(3-chloro-4-fluoroanilino)-6-methoxy-7-(3-(pyrrolidin-1-yl)propoxy)quinazoline]	121 nM

tested on: not listed separately; test: Mouse maximum tolerated dose (MTD) experiment; conditions: in vivo, mice, oral, administered 7 days then observed 7 days
Method in brief: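 Oral dosing for 7 days at twofold-spaced levels from 31.25 up to 1000 mg/kg, three randomized, weight-matched healthy mice per level. Animals were then watched for a further 7 drug-free days.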

SMILES	MTD
COc1cc2c(Nc3ccc(F)c(Cl)c3)ncnc2cc1OCCCN1CCCC1 [Compound 39, 4-(3-chloro-4-fluoroanilino)-6-methoxy-7-(3-(pyrrolidin-1-yl)propoxy)quinazoline]	62.5 to 125 mg/kg

tested on: SGC7901; test: In vitro cell experiment (MTT), SGC7901; type: cell-based; conditions: SGC-7901, 72 h, human gastric carcinoma cells
Procedure: as §2, §3

SMILES	IC50
COc1cc2c(Nc3ccc(F)c(Cl)c3)ncnc2cc1OCCCN1CCCC1 [Compound 39, 4-(3-chloro-4-fluoroanilino)-6-methoxy-7-(3-(pyrrolidin-1-yl)propoxy)quinazoline]	4520 nM

tested on: HCC827; test: In vitro cell experiment (MTT), HCC827; type: cell-based; conditions: 72 h, human non-small cell lung carcinoma (EGFR1 19 exon mutation)
Method in brief: as §1

SMILES	IC50
COc1cc2c(Nc3ccc(F)c(Cl)c3)ncnc2cc1OCCCN1CCCC1 [Compound 39, 4-(3-chloro-4-fluoroanilino)-6-methoxy-7-(3-(pyrrolidin-1-yl)propoxy)quinazoline]	0.2 nM

tested on: HUVEC; test: In vitro cell experiment (MTT), HUVEC; type: cell-based; conditions: 72 h, human umbilical vein endothelial cell (KDR overexpressing)
Procedure: as §2, §3

SMILES	IC50
COc1cc2c(Nc3ccc(F)c(Cl)c3)ncnc2cc1OCCCN1CCCC1 [Compound 39, 4-(3-chloro-4-fluoroanilino)-6-methoxy-7-(3-(pyrrolidin-1-yl)propoxy)quinazoline]	18.8 nM

tested on: 3T3swiss; test: In vitro cell experiment (MTT), 3T3swiss; type: cell-based; conditions: Fibroblast, 72 h, mouse fibroblasts (PDGFR overexpressing)
Procedure: as §2, §3

SMILES	IC50
COc1cc2c(Nc3ccc(F)c(Cl)c3)ncnc2cc1OCCCN1CCCC1 [Compound 39, 4-(3-chloro-4-fluoroanilino)-6-methoxy-7-(3-(pyrrolidin-1-yl)propoxy)quinazoline]	1750 nM

tested on: A498; test: In vitro cell experiment (MTT), A498; type: cell-based; conditions: 72 h, human renal carcinoma cells
Procedure: as §2, §3

SMILES	IC50
COc1cc2c(Nc3ccc(F)c(Cl)c3)ncnc2cc1OCCCN1CCCC1 [Compound 39, 4-(3-chloro-4-fluoroanilino)-6-methoxy-7-(3-(pyrrolidin-1-yl)propoxy)quinazoline]	2310 nM

tested on: PC-9; test: In vitro cell experiment (MTT), PC-9; type: cell-based; conditions: 72 h, human non-small-cell lung carcinoma cells (EGFR1 19 exon mutation)
Procedure: as §2, §3

SMILES	IC50
COc1cc2c(Nc3ccc(F)c(Cl)c3)ncnc2cc1OCCCN1CCCC1 [Compound 39, 4-(3-chloro-4-fluoroanilino)-6-methoxy-7-(3-(pyrrolidin-1-yl)propoxy)quinazoline]	6.6 nM

biological target: FLT-1 (Homo sapiens, UniProt P17948); test: In vitro enzyme experiment (ELISA), FLT-1; type: biochemical; conditions: Poly (Glu, Tyr)4:1 substrate, 5 μM ATP
Procedure: FLT-1: Human vascular endothelial growth factor receptor 1
as §4, §5, §6

SMILES	IC50
COc1cc2c(Nc3ccc(F)c(Cl)c3)ncnc2cc1OCCCN1CCCC1 [Compound 39, 4-(3-chloro-4-fluoroanilino)-6-methoxy-7-(3-(pyrrolidin-1-yl)propoxy)quinazoline]	34.6 nM

biological target: AXL (Homo sapiens, UniProt P30530); test: In vitro enzyme experiment (ELISA), AXL; type: biochemical; conditions: Poly (Glu, Tyr)4:1 substrate, 5 μM ATP
Sequence (P30530 473-894): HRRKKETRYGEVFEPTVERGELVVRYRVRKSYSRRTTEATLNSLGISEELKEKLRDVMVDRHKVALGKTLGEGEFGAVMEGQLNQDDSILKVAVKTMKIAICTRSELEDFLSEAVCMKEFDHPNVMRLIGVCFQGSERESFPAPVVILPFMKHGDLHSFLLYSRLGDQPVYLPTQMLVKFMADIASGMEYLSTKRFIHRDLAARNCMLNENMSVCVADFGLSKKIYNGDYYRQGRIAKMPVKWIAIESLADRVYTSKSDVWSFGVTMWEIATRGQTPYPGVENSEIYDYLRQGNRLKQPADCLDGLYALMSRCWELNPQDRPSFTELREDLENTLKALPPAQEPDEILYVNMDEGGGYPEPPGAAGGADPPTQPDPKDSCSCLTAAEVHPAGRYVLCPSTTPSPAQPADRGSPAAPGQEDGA
Procedure: as §4, with “AXL: Anaplastic lymphoma kinase Methods: ELISA:” for “ELISA:”, “nm. The relative inhibition rate of the compound against tyrosine kinase protein was determined. According to the inhibition rates at different concentrations, IC50 was calculated by LOGIT method. The experiments were repeated three times, and the average of three IC50 values was the final index to evaluate the ability of inhibition.” for “nm.”

SMILES	IC50
COc1cc2c(Nc3ccc(F)c(Cl)c3)ncnc2cc1OCCCN1CCCC1 [Compound 39, 4-(3-chloro-4-fluoroanilino)-6-methoxy-7-(3-(pyrrolidin-1-yl)propoxy)quinazoline]	2050 nM

tested on: Eca109; test: In vitro cell experiment (MTT), Eca109; type: cell-based; conditions: ECa-109, 72 h, human esophageal carcinoma cells
Procedure: as §2, §3

SMILES	IC50
COc1cc2c(Nc3ccc(F)c(Cl)c3)ncnc2cc1OCCCN1CCCC1 [Compound 39, 4-(3-chloro-4-fluoroanilino)-6-methoxy-7-(3-(pyrrolidin-1-yl)propoxy)quinazoline]	5750 nM

biological target: FGFR-1 (Homo sapiens, UniProt P11362); test: In vitro enzyme experiment (ELISA), FGFR-1; type: biochemical; conditions: Poly (Glu, Tyr)4:1 substrate, 5 μM ATP
Sequence (P11362 22-822, species assumed): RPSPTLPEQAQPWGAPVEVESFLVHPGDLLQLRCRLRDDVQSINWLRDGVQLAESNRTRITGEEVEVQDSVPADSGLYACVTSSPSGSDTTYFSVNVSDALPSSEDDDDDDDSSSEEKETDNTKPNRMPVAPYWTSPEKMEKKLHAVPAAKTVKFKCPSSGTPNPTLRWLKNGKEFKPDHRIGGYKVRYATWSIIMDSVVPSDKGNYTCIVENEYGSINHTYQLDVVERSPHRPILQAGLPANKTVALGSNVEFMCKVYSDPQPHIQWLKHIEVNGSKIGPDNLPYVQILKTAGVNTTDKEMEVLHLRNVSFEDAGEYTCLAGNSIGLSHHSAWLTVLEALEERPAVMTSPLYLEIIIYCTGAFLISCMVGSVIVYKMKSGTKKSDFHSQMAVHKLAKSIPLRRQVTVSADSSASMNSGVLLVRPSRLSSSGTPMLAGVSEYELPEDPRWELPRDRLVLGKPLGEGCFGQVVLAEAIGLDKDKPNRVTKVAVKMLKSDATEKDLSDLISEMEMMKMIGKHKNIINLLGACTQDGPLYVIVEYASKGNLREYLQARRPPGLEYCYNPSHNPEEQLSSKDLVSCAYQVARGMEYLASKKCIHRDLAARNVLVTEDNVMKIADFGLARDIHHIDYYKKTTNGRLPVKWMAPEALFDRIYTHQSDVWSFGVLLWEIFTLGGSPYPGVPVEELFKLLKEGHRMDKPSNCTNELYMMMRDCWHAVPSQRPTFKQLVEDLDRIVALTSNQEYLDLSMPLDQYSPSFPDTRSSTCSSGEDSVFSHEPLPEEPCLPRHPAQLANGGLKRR
Procedure: FGFR-1: Fibroblast growth factor receptor 1
as §4, §5, §6

SMILES	IC50
COc1cc2c(Nc3ccc(F)c(Cl)c3)ncnc2cc1OCCCN1CCCC1 [Compound 39, 4-(3-chloro-4-fluoroanilino)-6-methoxy-7-(3-(pyrrolidin-1-yl)propoxy)quinazoline]	19.6 nM

biological target: RET (Homo sapiens, UniProt P07949); test: In vitro enzyme experiment (ELISA), RET; type: biochemical; conditions: Poly (Glu, Tyr)4:1 substrate, 5 μM ATP
Procedure: RET: A receptor involved in thyroid cancer
as §4, §5, §6

SMILES	IC50
COc1cc2c(Nc3ccc(F)c(Cl)c3)ncnc2cc1OCCCN1CCCC1 [Compound 39, 4-(3-chloro-4-fluoroanilino)-6-methoxy-7-(3-(pyrrolidin-1-yl)propoxy)quinazoline]	10.2 nM

tested on: A431; test: In vitro cell experiment (MTT), A431; type: cell-based; conditions: A-431, 72 h, human epidermoid carcinoma (EGFR1 overexpressing)
Procedure: as §2, §3

SMILES	IC50
COc1cc2c(Nc3ccc(F)c(Cl)c3)ncnc2cc1OCCCN1CCCC1 [Compound 39, 4-(3-chloro-4-fluoroanilino)-6-methoxy-7-(3-(pyrrolidin-1-yl)propoxy)quinazoline]	2260 nM

biological target: PDGFRβ (Homo sapiens, UniProt P09619); test: In vitro enzyme experiment (ELISA), PDGFRβ; type: biochemical; conditions: Poly (Glu, Tyr)4:1 substrate, 5 μM ATP
Sequence (P09619 33-1106, species assumed): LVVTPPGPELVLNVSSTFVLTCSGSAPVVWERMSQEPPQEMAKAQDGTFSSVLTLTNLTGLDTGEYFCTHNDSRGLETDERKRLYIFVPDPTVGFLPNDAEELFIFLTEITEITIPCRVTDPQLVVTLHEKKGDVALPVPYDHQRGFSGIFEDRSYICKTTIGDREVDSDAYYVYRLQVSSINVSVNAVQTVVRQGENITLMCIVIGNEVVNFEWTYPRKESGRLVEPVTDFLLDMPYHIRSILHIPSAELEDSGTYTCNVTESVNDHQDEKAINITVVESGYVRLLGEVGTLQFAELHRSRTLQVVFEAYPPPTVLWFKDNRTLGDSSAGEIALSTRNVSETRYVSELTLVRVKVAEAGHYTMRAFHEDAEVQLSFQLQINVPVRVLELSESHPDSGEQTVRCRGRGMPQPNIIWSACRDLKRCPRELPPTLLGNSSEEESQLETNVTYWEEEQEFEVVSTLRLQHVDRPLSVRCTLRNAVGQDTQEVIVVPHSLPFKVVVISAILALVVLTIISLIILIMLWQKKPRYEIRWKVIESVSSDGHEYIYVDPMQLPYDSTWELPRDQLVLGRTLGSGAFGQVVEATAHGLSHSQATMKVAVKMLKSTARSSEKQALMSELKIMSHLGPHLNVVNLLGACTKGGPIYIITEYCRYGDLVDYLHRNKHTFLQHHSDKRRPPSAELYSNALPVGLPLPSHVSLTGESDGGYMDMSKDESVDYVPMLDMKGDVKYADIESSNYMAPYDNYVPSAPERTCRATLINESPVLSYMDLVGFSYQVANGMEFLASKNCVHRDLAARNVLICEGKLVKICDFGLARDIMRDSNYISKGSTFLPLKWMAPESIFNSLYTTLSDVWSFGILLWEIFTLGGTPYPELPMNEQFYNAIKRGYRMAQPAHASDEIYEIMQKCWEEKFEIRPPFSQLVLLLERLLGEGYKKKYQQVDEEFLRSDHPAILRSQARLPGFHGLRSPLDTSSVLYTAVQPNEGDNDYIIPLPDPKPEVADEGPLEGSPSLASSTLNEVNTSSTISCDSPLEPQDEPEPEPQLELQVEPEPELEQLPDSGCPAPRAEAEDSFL
Procedure: PDGFRβ: Platelet-derived growth factor receptor β
as §4, §5, §6

SMILES	IC50
COc1cc2c(Nc3ccc(F)c(Cl)c3)ncnc2cc1OCCCN1CCCC1 [Compound 39, 4-(3-chloro-4-fluoroanilino)-6-methoxy-7-(3-(pyrrolidin-1-yl)propoxy)quinazoline]	258 nM

biological target: KDR (Homo sapiens, UniProt P35968); test: In vitro enzyme experiment (ELISA), KDR; type: biochemical; conditions: Poly (Glu, Tyr)4:1 substrate, 5 μM ATP
Sequence (P35968 20-1356): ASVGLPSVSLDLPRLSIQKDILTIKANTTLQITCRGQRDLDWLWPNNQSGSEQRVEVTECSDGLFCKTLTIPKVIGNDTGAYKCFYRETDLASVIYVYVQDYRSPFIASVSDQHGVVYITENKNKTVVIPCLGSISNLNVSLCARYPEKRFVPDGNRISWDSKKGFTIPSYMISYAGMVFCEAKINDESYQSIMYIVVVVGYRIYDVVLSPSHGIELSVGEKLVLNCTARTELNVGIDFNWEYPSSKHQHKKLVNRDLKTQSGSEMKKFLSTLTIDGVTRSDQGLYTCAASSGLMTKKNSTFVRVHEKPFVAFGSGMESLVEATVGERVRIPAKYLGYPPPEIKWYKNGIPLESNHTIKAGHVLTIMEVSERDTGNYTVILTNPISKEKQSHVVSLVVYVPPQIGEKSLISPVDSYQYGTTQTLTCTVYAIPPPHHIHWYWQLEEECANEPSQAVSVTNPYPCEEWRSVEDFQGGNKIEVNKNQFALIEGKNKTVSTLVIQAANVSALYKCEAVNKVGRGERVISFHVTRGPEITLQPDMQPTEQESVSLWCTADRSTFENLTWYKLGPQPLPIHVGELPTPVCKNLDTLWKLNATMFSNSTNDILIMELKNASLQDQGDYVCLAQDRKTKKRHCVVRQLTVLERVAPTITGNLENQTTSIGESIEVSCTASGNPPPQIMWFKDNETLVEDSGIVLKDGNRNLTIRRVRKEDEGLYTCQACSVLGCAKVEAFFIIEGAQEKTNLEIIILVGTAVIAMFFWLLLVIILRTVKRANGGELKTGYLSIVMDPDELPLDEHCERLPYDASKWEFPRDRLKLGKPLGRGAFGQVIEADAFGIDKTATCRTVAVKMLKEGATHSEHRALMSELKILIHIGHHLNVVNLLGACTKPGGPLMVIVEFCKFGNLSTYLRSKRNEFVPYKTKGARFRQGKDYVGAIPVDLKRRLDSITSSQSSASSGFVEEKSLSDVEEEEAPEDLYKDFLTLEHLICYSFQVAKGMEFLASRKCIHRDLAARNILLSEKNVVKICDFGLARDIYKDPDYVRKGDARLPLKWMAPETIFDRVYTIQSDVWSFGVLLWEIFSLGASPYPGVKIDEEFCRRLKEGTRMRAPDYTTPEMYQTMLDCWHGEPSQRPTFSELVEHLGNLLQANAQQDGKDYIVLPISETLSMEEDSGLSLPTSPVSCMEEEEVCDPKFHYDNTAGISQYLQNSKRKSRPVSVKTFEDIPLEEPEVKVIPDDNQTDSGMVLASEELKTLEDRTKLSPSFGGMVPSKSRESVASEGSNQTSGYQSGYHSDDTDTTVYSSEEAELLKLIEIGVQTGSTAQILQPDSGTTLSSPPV
Procedure: KDR: Human vascular endothelial growth factor receptor 2
as §4, §5, §6

SMILES	IC50
COc1cc2c(Nc3ccc(F)c(Cl)c3)ncnc2cc1OCCCN1CCCC1 [Compound 39, 4-(3-chloro-4-fluoroanilino)-6-methoxy-7-(3-(pyrrolidin-1-yl)propoxy)quinazoline]	18.9 nM

biological target: BTK (Homo sapiens, UniProt Q06187); test: In vitro enzyme experiment (ELISA), BTK; type: biochemical; conditions: Poly (Glu, Tyr)4:1 substrate, 5 μM ATP
Sequence (Q06187 whole entry, species assumed): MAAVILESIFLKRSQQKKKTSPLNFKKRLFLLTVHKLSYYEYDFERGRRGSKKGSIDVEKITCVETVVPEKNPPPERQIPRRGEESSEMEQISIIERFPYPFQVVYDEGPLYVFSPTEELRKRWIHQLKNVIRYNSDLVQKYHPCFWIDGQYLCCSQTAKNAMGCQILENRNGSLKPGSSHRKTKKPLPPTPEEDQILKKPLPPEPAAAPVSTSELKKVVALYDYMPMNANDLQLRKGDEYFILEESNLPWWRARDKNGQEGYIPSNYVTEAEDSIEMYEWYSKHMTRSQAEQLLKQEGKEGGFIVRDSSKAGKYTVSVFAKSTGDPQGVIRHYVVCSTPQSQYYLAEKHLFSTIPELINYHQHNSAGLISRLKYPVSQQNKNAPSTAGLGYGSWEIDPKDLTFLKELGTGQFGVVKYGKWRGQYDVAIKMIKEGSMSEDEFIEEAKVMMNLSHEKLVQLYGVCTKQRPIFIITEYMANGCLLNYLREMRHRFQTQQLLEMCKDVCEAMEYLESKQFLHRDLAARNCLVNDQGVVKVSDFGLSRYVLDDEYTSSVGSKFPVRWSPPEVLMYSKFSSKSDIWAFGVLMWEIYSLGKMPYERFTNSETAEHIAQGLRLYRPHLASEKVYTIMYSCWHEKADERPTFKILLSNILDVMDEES
Procedure: BTK: Bruton tyrosine kinase
as §4, §5, §6

SMILES	IC50
COc1cc2c(Nc3ccc(F)c(Cl)c3)ncnc2cc1OCCCN1CCCC1 [Compound 39, 4-(3-chloro-4-fluoroanilino)-6-methoxy-7-(3-(pyrrolidin-1-yl)propoxy)quinazoline]	297 nM

tested on: A549; test: In vitro cell experiment (MTT), A549; type: cell-based; conditions: 72 h, human non-small-cell lung carcinoma cells (EGFR1 wildtype)
Method in brief: as §1

SMILES	IC50
COc1cc2c(Nc3ccc(F)c(Cl)c3)ncnc2cc1OCCCN1CCCC1 [Compound 39, 4-(3-chloro-4-fluoroanilino)-6-methoxy-7-(3-(pyrrolidin-1-yl)propoxy)quinazoline]	2660 nM
